The target in this test is RIPK2 (Homo sapiens (Human), UniProt O43353). The test can be described thus: RIPK2 inhibition, ADP-Glo Kinase Assay. It is filed as biochemical. The conditions noted are these: 8His-RIPK2 FL enzyme 8 nM, ATP 5 μM, 15 minutes pre-incubation, 60 minutes at 37° C., luminescence. In outline:
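Full-length 8His-RIPK2 (8 nM) preincubated 15 min at RT with compound (1% DMSO), then 5 μM ATP added for 60 min at 37 °C in HEPES pH 7.5 buffer with Mg2+/Mn2+. ADP measured by ADP-Glo luminescence; activity expressed as % of vehicle control, no-enzyme wells as low control.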
A general note: In ADP-Glo the light output rises with the ADP produced.

The IC50 is the concentration at which inhibition is half-maximal. Read a low IC50 as inhibition by little substance.

RIPK2, sequence (O43353 whole entry): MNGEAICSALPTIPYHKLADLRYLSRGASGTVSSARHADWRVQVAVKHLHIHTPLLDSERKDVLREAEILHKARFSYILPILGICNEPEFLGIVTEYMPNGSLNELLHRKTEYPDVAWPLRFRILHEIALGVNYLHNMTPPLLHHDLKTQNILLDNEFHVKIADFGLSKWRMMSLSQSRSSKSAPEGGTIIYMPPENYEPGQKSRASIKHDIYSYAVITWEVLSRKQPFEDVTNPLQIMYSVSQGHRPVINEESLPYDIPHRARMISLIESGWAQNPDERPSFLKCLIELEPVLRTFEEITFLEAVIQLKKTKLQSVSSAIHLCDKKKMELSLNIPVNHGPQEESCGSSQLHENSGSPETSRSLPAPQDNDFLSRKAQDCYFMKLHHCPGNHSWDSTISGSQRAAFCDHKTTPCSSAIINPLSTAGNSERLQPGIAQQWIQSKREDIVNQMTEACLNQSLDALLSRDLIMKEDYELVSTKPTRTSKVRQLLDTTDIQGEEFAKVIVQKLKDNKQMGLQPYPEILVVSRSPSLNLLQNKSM

Regarding `COCC(C)N1CCC(Nc2cncc(-n3cc(-c4cc(C(=O)NC5CC5)ccc4C)cn3)c2)CC1` (stereo not drawn) [Example 156, N-cyclopropyl-3-[1-(5-{[1-(1-methoxypropan-2-yl)piperidin-4-yl]amino}pyridin-3-yl)-1H-pyrazol-4-yl]-4-methylbenzamide], the half-inhibitory concentration (IC50) stood at 1.6 nM. Next, `Cc1cc(F)c(C(=O)NC2CC2)cc1-c1cnn(-c2cncc(N[C@@H]3CCN(C)CC3(F)F)c2)c1` (single isomer, unassigned) [Example 176]: 1.5 nM; `Cc1ccc(C(=O)NC2CC2)cc1-c1cnn(-c2cncc(NC3CCN(CC4COCCO4)CC3)c2)c1` (stereo not drawn) [Example 168, N-cyclopropyl-3-[1-(5-{[1-(1,4-dioxan-2-ylmethyl)piperidin-4-yl]amino}pyridin-3-yl)-1H-pyrazol-4-yl]-4-methylbenzamide]: 0.95 nM; `CC(=O)N1CCC(Nc2cncc(-n3cc(-c4cc(C(=O)NC5CC5)ccc4C)cn3)c2)CC1` [Example 63, 3-(1-{5-[(1-acetylpiperidin-4-yl)amino]pyridin-3-yl}-1H-pyrazol-4-yl)-N-cyclopropyl-4-methyl-benzamide]: 1.9 nM. `Cc1ccc(C(=O)NC2CC2)cc1-c1cnn(-c2cncc(CN3CCOCC3=O)c2)c1` [Example 135, N-cyclopropyl-4-methyl-3-(1-{5-[(3-oxomorpholin-4-yl)methyl]pyridin-3-yl}-1H-pyrazol-4-yl)benzamide] yielded an IC50 of 120 nM. Next, `Cc1ccc(C(=O)NC2CC2)cc1-c1cnn(-c2cncc(C3CC3)c2)c1` [Example 45, N-cyclopropyl-3-[1-(5-cyclopropyl-pyridin-3-yl)-1H-pyrazol-4-yl]-4-methylbenzamide]: 3.6 nM. In the case of `Cc1cc(F)c(C(=O)NC2CC2)cc1-c1cnn(-c2cncc(N3CCC(N(C)C)CC3)c2)c1` [Example 171, N-Cyclopropyl-5-[1-(4-dimethyl-amino-3,4,5,6-tetrahydro-2H-[1,3″]bipyridinyl-5″-yl)-1H-pyrazol-4-yl]-2-fluoro-4-methyl-benzamide] it was 1.4 nM; in that of `CNC(=O)Nc1cncc(-n2cc(-c3cc(C(=O)NC4CC4)ccc3C)cn2)c1` [Example 107, N-cyclopropyl-4-methyl-3-(1-{5-[(methylcarbamoyl)amino]pyridin-3-yl}-1H-pyrazol-4-yl)benzamide], 3.3 nM. In the case of `Cc1ccc(C(=O)NC2CC2)cc1-c1cnn(-c2cncc(C(=O)O)c2)c1` [Example 48, 5-{4-[5-(cyclopropylcarbamoyl)-2-methylphenyl]-1H-pyrazol-1-yl} pyridine-3-carboxylic acid] it was 33 nM; in that of `Cc1cc(F)c(C(=O)NC2CC2)cc1-c1cnn(-c2cncc(N[C@H]3CCN(C)C[C@H]3F)c2)c1` [Example 169], 1.3 nM; in that of `Cc1ccc(C(=O)NC2CC2)cc1-c1cnn(-c2cncc(O)c2)c1` [Example 95, N-cyclopropyl-3-[1-(5-hydroxypyridin-3-yl)-1H-pyrazol-4-yl]-4-methyl-benzamide], 6.1 nM. In turn, `O=C(NC1CC1)c1ccc(Cl)c(-c2cnn(-c3cccnc3)c2)c1` [Example 31, 4-chloro-N-cyclopropyl-3-[1-(pyridin-3-yl)-1H-pyrazol-4-yl]benzamide] returned an IC50 of 94 nM. On to `Cc1ccc(C(=O)NC2CC2)cc1-c1cnn(-c2cncc(NC3CCN(CC4CCOCC4)CC3)c2)c1` [Example 155, N-cyclopropyl-4-methyl-3-[1-(5-{[1-(oxan-4-ylmethyl)piperidin-4-yl]amino}pyridin-3-yl)-1H-pyrazol-4-yl]benzamide], for which the 50% inhibitory concentration (IC50) amounted to 1.7 nM. In the case of `Cc1ccc(C(=O)NC2CC2)cc1-c1cnn(-c2cccnc2)c1` [Example 34, N-cyclopropyl-4-methyl-3-[1-(pyridin-3-yl)-1H-pyrazol-4-yl] benzamide] it was 38 nM; in that of `CCOc1cncc(-n2cc(-c3cc(C(=O)NC4CC4)ccc3C)cn2)c1` [Example 36, N-cyclopropyl-3-[1-(5-ethoxypyridin-3-yl)-1H-pyrazol-4-yl]-4-methyl-benzamide], 8.8 nM; in that of `Cc1ccc(C(=O)NC2CC2)cc1-c1cnn(-c2cncc(N3CCN(C)CC3)c2)c1` [Example 100, N-cyclopropyl-4-methyl-3-{1-[5-(4-methylpiperazin-1-yl)pyridin-3-yl]-1H-pyrazol-4-yl}benzamide], 29 nM. `Cc1ccc(C(=O)NC2CC2)cc1-c1cnn(-c2cncc(NC3CCN(C4CCOC4)CC3)c2)c1` (stereo not drawn) [Example 166, N-cyclopropyl-4-methyl-3-[1-(5-{[1-(oxolan-3-yl)piperidin-4-yl]amino}pyridin-3-yl)-1H-pyrazol-4-yl] benzamide] displayed a half-inhibitory concentration (IC50) of 0.94 nM. Next, `CC(=O)N1CC(Oc2cncc(-n3cc(-c4cc(C(=O)NC5CC5)ccc4C)cn3)c2)C1` [Example 124, 3-(1-{5-[(1-acetylazetidin-3-yl)oxy]pyridin-3-yl}-1H-pyrazol-4-yl)-N-cyclopropyl-4-methylbenzamide]: 13 nM. Take `Cc1ccc(C(=O)NC2CC2)cc1-c1cnn(-c2cncc(OC3CCOC3)c2)c1` (stereo not drawn) [Example 145, N-cyclopropyl-4-methyl-3-{1-[5-(oxolan-3-yloxy)pyridin-3-yl]-1H-pyrazol-4-yl}benzamide]: half-maximal inhibition (IC50) was put at 4.7 nM.

Molecule `Cc1ccc(C(=O)NC2CC2)cc1-c1cnn(-c2cncc(NC(=O)C3CCC3)c2)c1` [Example 115, 3-[1-(5-cyclobutaneamidopyridin-3-yl)-1H-pyrazol-4-yl]-N-cyclopropyl-4-methylbenzamide] showed a concentration for half-maximal inhibition (IC50) of 2.7 nM.

The molecule `Cc1ccc(C(=O)NC2CC2)cc1-c1cnn(-c2cncc(NC3CCN(CC4CCOC4)CC3)c2)c1` (stereo not drawn) [Example 154, N-cyclopropyl-4-methyl-3-[1-(5-{[1-(oxolan-3-ylmethyl)piperidin-4-yl]amino}pyridin-3-yl)-1H-pyrazol-4-yl]benzamide] returned an IC50 of 1.8 nM. Next, `Cc1cc(F)c(C(=O)NC2CC2)cc1-c1cnn(-c2cncc(N[C@H]3CCN(C)CC3(F)F)c2)c1` (single isomer, unassigned) [Example 175]: 1.7 nM; `Cc1ccc(C(=O)NC2CC2)cc1-c1cnn(-c2cncc(OC(C)C)c2)c1` [Example 81, N-cyclopropyl-4-methyl-3-{1-[5-(propan-2-yloxy)pyridin-3-yl]-1H-pyrazol-4-yl}benzamide]: 5.4 nM; `Cc1ccc(C(=O)NC2CC2)cc1-c1cnn(-c2cncc(OC3CCC(C#N)C3)c2)c1` (stereo not drawn) [Example 151, 3-(1-{5-[(3-cyanocyclopentyl)oxy]pyridin-3-yl}-1H-pyrazol-4-yl)-N-cyclopropyl-4-methylbenzamide]: 6.4 nM. Next, `Cc1ccc(C(=O)NC2CC2)cc1-c1cnn(-c2cncc(N3CCOCC3)c2)c1` [Example 98, N-cyclopropyl-4-methyl-3-{1-[5-(morpholin-4-yl)pyridin-3-yl]-1H-pyrazol-4-yl}benzamide]: 10 nM; `Cc1ccc(C(=O)NC2CC2)cc1-c1cnn(-c2cncc(NCC3COCCO3)c2)c1` (stereo not drawn) [Example 57, N-cyclopropyl-3-(1-{5-[(1,4-dioxan-2-ylmethyl)amino]pyridin-3-yl}-1H-pyrazol-4-yl)-4-methylbenzamide]: 4.5 nM; `Cc1ccc(C(=O)NC2CC2)cc1-c1cnn(-c2cncc(OC[C@H]3CCCO3)c2)c1` [Example 150, N-cyclopropyl-4-methyl-3-(1-{5-[(2R)-oxolan-2-ylmethoxy]pyridin-3-yl}-1H-pyrazol-4-yl) benzamide]: 7 nM.
